Measured values as given in patent publication US9481654B2, “Compositions and methods for inhibition of the JAK pathway” (Rigel Pharmaceuticals, Inc., priority 2006, dated 2016).

What was measured:
[1] = tested on: IL-4 stimulated CD23 upregulation in human Ramos B cells (JAK-1/JAK-3, Stat-6); experiment: Assay for Ramos B-Cell Line Stimulated with IL-4 (CD23 upregulation, FACS); type: cell-based; conditions: Table III Example 3
Method in brief: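 Log-phase Ramos B cells (5×10^4 per point, RPMI with 5% serum) pre-incubated with compound or DMSO 1 h at 37° C, then stimulated with IL-4 at 50 units/mL final for 20-24 h. CD23 upregulation measured by staining and flow cytometry.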

[2] = tested on: IFNγ induced ICAM-1 (CD54) up-regulation in A549 lung epithelial cells (JAK/Stat pathway); experiment: A549 Epithelial Line Stimulated with IFNγ (ICAM-1 surface expression, flow cytometry); type: cell-based, human
Source text: The activity of the compounds of the invention may additionally be characterized by assaying the effect of the 2,4-pyrimidinediamine compounds described herein on A549 lung epithelial cells and U937 cells. A549 lung epithelial cells and U937 cells up-regulate ICAM-1 (CD54) surface expression in response to a variety of different stimuli. Therefore, using ICAM-1 expression as readout, test compound effects on different signaling pathways can be assessed in the same cell type. Stimulation with IL-1β through the IL-1β receptor activates the TRAF6/NFκB pathway resulting in up-regulation of ICAM-1. IFNγ induces ICAM-1 up-regulation through activation of the JAK1/JAK2 pathway. The up-regulation of ICAM-1 can be quantified by flow cytometry across a compound dose curve and EC50 values are calculated. Exemplary assays of this type are described in greater detail in Examples 5 and 6.
A549 lung epithelial cells up-regulate ICAM-1 (CD54) surface expression in response to a variety of different stimuli. Therefore, using ICAM-1 expression as readout, compound effects on different signaling pathways can be assessed in the same cell type. IFNγ up-regulates ICAM-1 through activation of the JAK/Stat pathway. In this example, the up-regulation of ICAM-1 by IFNγ was assessed.
The A549 lung epithelial carcinoma cell line originated from the American Type Culture Collection. Routine culturing was with F12K media (Mediatech Inc., Lenexa, Kans., Cat. No. 10-025-CV) with 10% fetal bovine serum, 100 I.U. penicillin and […] streptomycin (complete F12k media). Cells were incubated in a humidified atmosphere of 5% CO2 at 37° C. Prior to use in the assay, A549 cells were washed with PBS and trypsinized (Mediatech Inc., Cat. No. 25-052-CI) to lift the cells. The trypsin cell suspension was neutralized with complete F12K media and centrifuged to pellet the cells. The cell pellet was resuspended in complete F12K media at a concentration of 2.0×10^5/mL. Cells were seeded at 20,000 per well, 100 μL total volume, in a flat bottom tissue culture plate and allowed to adhere overnight.
On day two, A549 cells were pre-incubated with a 2,4-pyrimidinediamine test compound or DMSO (control) (Sigma-Aldrich, St. Louis, Mo., Catalog No. D2650) for 1 hour. The cells were then stimulated with IFNγ (75 ng/mL) (Peprotech Inc., Rocky Hill, N.J., Cat. No. 300-02) and allowed to incubate for 24 hours. The final test compound dose range was 30 μM to 14 nM in 200 μL F12K media containing 5% FBS, 0.3% DMSO.
On day three, the cell media was removed and the cells were washed with 200 μL PBS (phosphate buffered saline). Each well was trypsinized to dissociate the cells, then neutralized by addition of 200 μL complete F12K media. Cells were pelleted and stained with an APC conjugated mouse anti-human ICAM-1 (CD54) (BD Pharmingen, San Diego, Calif., Catalog #559771) antibody for 20 minutes at 4° C. Cells were washed with ice cold FACS buffer (PBS+2% FBS) and surface ICAM-1 expression was analyzed by flow cytometry. Detection was performed using a BD LSR I System Flow Cytometer, purchased from BD Biosciences of San Jose, Calif. Events were gated for live scatter and the geometric mean was calculated (Becton-Dickinson CellQuest software version 3.3, Franklin Lakes, N.J.). Geometric means were plotted against the compound concentration to generate a dose response curve.

| Structure (SMILES) | IC50 [1] | IC50 ([2]; Table III Example 5) | IC50 ([1]; Homo sapiens, Ramos) | IC50 ([2]; Homo sapiens, A549, Table III Example 5) |
| --- | --- | --- | --- | --- |
| Cc1ccc(Nc2ncc(C)c(Nc3ccc(CNS(=O)(=O)C4CC4)cc3)n2)cc1S(=O)(=O)Nc1ccccc1 [Compound I-202, N4-(4-cyclopropylsulfonylaminomethyl)phenyl-5-methyl-N2-(4-methyl-3-phenylaminosulfonyl)phenyl-2,4-pyrimidinediamine] | 86.5 nM | 6050 nM | – | – |
| NS(=O)(=O)c1cccc(Nc2ncc(F)c(Nc3ccc(CNS(=O)(=O)C4CCCC4)cc3)n2)c1 [Compound I-69, N2-(3-aminosulfonyl)phenyl-N4-(4-cyclopentylsulfonylaminomethyl)phenyl-5-fluoro-2,4-pyrimidinediamine] | 51.5 nM | 7760 nM | – | – |
| CCNS(=O)(=O)c1ccc(Nc2ncc(C)c(Nc3ccc(CNS(=O)(=O)C4CC4)cc3)n2)cc1 [Compound I-175, N4-(4-cyclopropylsulfonylaminomethyl)phenyl-N2-(4-ethylaminosulfonyl)phenyl-5-methyl-2,4-pyrimidinediamine] | 46.1 nM | 2370 nM | – | – |
| CCS(=O)(=O)NCc1ccc(Nc2nc(Nc3cccc(S(N)(=O)=O)c3)ncc2C)cc1 [Compound I-21, N2-(3-aminosulfonyl)phenyl-N4-(4-ethylsulfonylaminomethyl)phenyl-5-methyl-2,4-pyrimidinediamine] | 81.2 nM | 2490 nM | – | – |
| CCCNS(=O)(=O)c1cc(Nc2ncc(C)c(Nc3ccc(CNS(=O)(=O)C4CC4)cc3)n2)ccc1C [Compound I-187, N4-(4-cyclopropylsulfonylaminomethyl)phenyl-5-methyl-N2-(4-methyl-3-propylaminosulfonyl)phenyl-2,4-pyrimidinediamine] | 72.4 nM | 2420 nM | – | – |
| CCS(=O)(=O)NCc1ccc(Nc2nc(Nc3ccc(C)c(S(N)(=O)=O)c3)ncc2F)cc1 [Compound I-10, N2-(3-aminosulfonyl-4-methyl)phenyl-N4-(4-ethylsulfonylaminomethyl)phenyl-5-fluoro-2,4-pyrimidinediamine] | 94 nM | 29500 nM | – | – |
| NS(=O)(=O)c1cccc(Nc2ncc(Cl)c(Nc3ccc(CNS(=O)(=O)C4CC4)cc3)n2)c1 [Compound I-114, N2-(3-aminosulfonyl)phenyl-5-chloro-N4-(4-cyclopropylsulfonylaminomethyl)phenyl-2,4-pyrimidinediamine] | 20.6 nM | 5650 nM | – | – |
| Cc1ccc(Nc2ncc(C)c(Nc3ccc(CCNS(=O)(=O)C4CC4)cc3)n2)cc1S(N)(=O)=O [Compound I-55, N2-(3-aminosulfonyl-4-methyl)phenyl-N4-[4-(2-cyclopropylsulfonylamino)ethyl]phenyl-5-methyl-2,4-pyrimidinediamine] | 78.8 nM | 3880 nM | – | – |
| Cc1cnc(Nc2cccc(S(N)(=O)=O)c2)nc1Nc1ccc(CCNS(=O)(=O)C2CC2)cc1 [Compound I-54, N2-(3-aminosulfonyl)phenyl-N4-[4-(2-cyclopropylsulfonylamino)ethyl]phenyl-5-methyl-2,4-pyrimidinediamine] | 94.3 nM | 4690 nM | – | – |
| Cc1ccc(Nc2ncc(F)c(Nc3ccc(CNS(=O)(=O)CC(F)(F)F)cc3)n2)cc1S(N)(=O)=O [Compound I-50, N2-(3-aminosulfonyl-4-methyl)phenyl-5-fluoro-N4-(4-trifluoroethylsulfonylaminomethyl)phenyl-2,4-pyrimidinediamine] | 34.3 nM | 9350 nM | – | – |
| Cc1ccc(Nc2ncc(C)c(Nc3ccc(CNS(=O)(=O)C4CC4)c(Cl)c3)n2)cc1S(N)(=O)=O [Compound I-125, N2-(3-aminosulfonyl-4-methyl)phenyl-N4-(3-chloro-4-cyclopropylsulfonylaminomethyl)phenyl-5-methyl-2,4-pyrimidinediamine] | 94.9 nM | 4030 nM | – | – |
| CCS(=O)(=O)N[C@H](C)c1ccc(Nc2nc(Nc3cccc(S(N)(=O)=O)c3)ncc2F)cc1 [Compound I-30, N2-(3-aminosulfonyl)phenyl-N4-[4-(1R-ethylsulfonylamino)ethyl]phenyl-5-fluoro-2,4-pyrimidinediamine] | 74.3 nM | 6100 nM | – | – |
| Cc1ccc(Nc2ncc(F)c(Nc3ccc(CNS(=O)(=O)C4CCCC4)cc3)n2)cc1S(N)(=O)=O [Compound I-70, N2-(3-aminosulfonyl-4-methyl)phenyl-N4-(4-cyclopentylsulfonylaminomethyl)phenyl-5-fluoro-2,4-pyrimidinediamine] | 43 nM | 2580 nM | – | – |
| CNS(=O)(=O)c1cccc(Nc2ncc(C)c(Nc3cccc(CNS(=O)(=O)C4CC4)c3)n2)c1 [Compound I-162, N4-(3-cyclopropylsulfonylaminomethyl)phenyl-5-methyl-N2-(3-methylaminosulfonyl)phenyl-2,4-pyrimidinediamine] | 57.9 nM | 1920 nM | – | – |
| CCS(=O)(=O)NCCc1ccc(Nc2nc(Nc3ccc(C)c(S(N)(=O)=O)c3)ncc2F)cc1 [Compound I-16, N2-(3-aminosulfonyl-4-methyl)phenyl-N4-[4-(2-ethylsulfonylamino)ethyl]phenyl-5-fluoro-2,4-pyrimidinediamine] | 148 nM | 9010 nM | – | – |
| Cc1ccc(Nc2ncc(C)c(Nc3ccc(CNS(=O)(=O)C4CC4)cc3)n2)cc1S(=O)(=O)NCc1ccccc1 [Compound I-195, N2-(3-benzylaminosulfonyl-4-methyl)phenyl-N4-(4-cyclopropylsulfonylaminomethyl)phenyl-5-methyl-2,4-pyrimidinediamine] | 66.4 nM | 3540 nM | – | – |
| NS(=O)(=O)c1ccc(Nc2ncc(F)c(Nc3ccc(CNS(=O)(=O)C4CCCCC4)cc3)n2)cc1 [Compound I-71, N2-(4-aminosulfonyl)phenyl-N4-(4-cyclohexylsulfonylaminomethyl)phenyl-5-fluoro-2,4-pyrimidinediamine] | 120 nM | 10500 nM | – | – |
| Cc1cnc(Nc2cccc(S(N)(=O)=O)c2)nc1Nc1ccc(CNS(=O)(=O)C(C)C)cc1 [Compound I-118, N2-(3-aminosulfonyl)phenyl-N4-(4-isopropylsulfonylaminomethyl)phenyl-5-methyl-2,4-pyrimidinediamine] | 39.8 nM | 2480 nM | – | – |
| CCS(=O)(=O)NCCc1ccc(Nc2nc(Nc3ccc(C)c(S(N)(=O)=O)c3)ncc2C)cc1 [Compound I-40, N2-(3-aminosulfonyl-4-methyl)phenyl-N4-[4-(2-ethylsulfonylamino)ethyl]phenyl-5-methyl-2,4-pyrimidinediamine] | 68.1 nM | 3490 nM | – | – |
| Cc1ccc(Nc2ncc(F)c(Nc3ccc(CNS(=O)(=O)c4cccs4)cc3)n2)cc1S(N)(=O)=O [Compound I-37, N2-(3-aminosulfonyl-4-methyl)phenyl-5-fluoro-N4-[4-(thiophen-2-yl)sulfonylaminomethyl]phenyl-2,4-pyrimidinediamine] | 46.2 nM | 27700 nM | – | – |
| CNS(=O)(=O)c1cccc(Nc2ncc(C)c(Nc3ccc(CNS(=O)(=O)C4CC4)cc3)n2)c1 [Compound I-161, N4-(4-cyclopropylsulfonylaminomethyl)phenyl-5-methyl-N2-(3-methylaminosulfonyl)phenyl-2,4-pyrimidinediamine] | 16.7 nM | 24400 nM | – | – |
| C#CCNS(=O)(=O)Cc1ccc(Nc2nc(Nc3cccc(S(N)(=O)=O)c3)ncc2F)cc1 [Compound I-4, N2-(3-Aminosulfonylphenyl)-5-fluoro-N4-[4-(prop-2-ynylaminosulfonylmethyl)phenyl]-2,4-pyrimidinediamine] | – | – | 141 nM | 18200 nM |
